Results as given in patent publication US9283198B2, “Materials and methods for treating viral infections” (priority 2005, dated 2016).
In brackets after ≈: the same amount, converted by molar mass. Counter-ions that a name gives are not always drawn. Like-named read-outs stand apart in the source and are kept apart here.

What was measured:
[1] = test system: H5N1 avian influenza virus, WV strain; details: in vivo, po
[2] = test system: H5N1 avian influenza viruses CV strain; experiment: animal or person; type: in vivo, H5N1 avian influenza virus; details: for IC50: Influenza A virus
[3] = test system: embryonated hen eggs; details: in vivo
[4] = test system: influenza virus; details: in vivo, po
[5] = H5N1, read-out: IC50 against H5N1 avian influenza virus

| SMILES | protection rate in mice [1] | IC50 ([2]; H5N1, read-out: IC50 (drug concentration required to survive 50% embryo)) | IC50 [2, 5] | IC50 against H5N1 avian influenza virus ([2]; in vivo) | LD50 of TG21 to embryonated hen eggs ([3]; chicken (hen) embryo) | dose below which no side-effect was found ([3]; chicken (hen) embryo) | toxicity at high doses [3] | time until symptoms associated with the influenza infection had disappeared [4] |
| --- | --- | --- | --- | --- | --- | --- | --- | --- |
| CCOC(=O)C1=C[C@@H](OC(CC)CC)[C@H](NC(C)=O)[C@@H](N)C1 [TAMIFLU®, oseltamivir phosphate, reference compound] | 60% | 25.1 mg/mL | 19.4 mg/mL | – | – | – | – | – |
| NCCS [TG21, Cysteamine] | – | – | 17.5 mg/mL (≈ 227 mM) | 16.1 mg/mL (≈ 209 mM) | 32.1 mg/mL | below 12.5 mg/mL | some toxicity was detected | – |
| NCCS [cysteamine hydrochloride] | – | – | – | – | – | – | – | ≤ 24 h |
